In US12391701B2, “Chromene-based compounds, methods and uses thereof” (University of Minho, priority 2019, dated 2025):

Key:
Type in all cases: cell-based
TNBC cell line Hs578t = assay: Cell viability assay (MTS), Hs578t; conditions: Homo sapiens, Hs-578T; 72 h incubation
From the text: In an embodiment, for a comparison study, monomers and respective dimers were selected and further evaluated in Hs578t and MDA-MB-468 breast cell lines. […] These cell lines correspond to the basal-like subtype of breast cancer, included in the known triple negative subtype, since they are negative for Estrogen receptor (ER), progesterone receptor (PR) and Human epidermal growth factor receptor 2 (HER2) molecular markers. The clinical behaviour of these breast cancer subtype is very aggressive and there is still no specific molecular therapy available.
In an embodiment, three human breast cancer cell lines Hs578T, MDA-MB-468 and MCF-7, and a normal breast cell line MCF-10A, were obtained from ATCC (American Type Culture Collection). The cancer cell lines were cultured in Dulbecco's modified Eagle medium, 4.5 g/l glucose (DMEM, Gibco) supplemented with 10% heating inactivated Fetal Bovine Serum (FBS, Gibco) and 1% antibiotic solution (Penicillin-Streptomycin, Gibco). The normal cell line was cultured in Dulbecco's Modified Eagle Medium: Nutrient Mixture F-12 (DMEM/F12, Gibco) supplemented with 5% heating inactivated FBS (Gibco), 1% antibiotic solution (Penicillin-Streptomycin, Gibco), 1% steroid hormone (Hydrocortisone, Sigma-Aldrich), 0.1% peptide hormone (Insulin, Sigma-Aldrich) and 0.01% protein complex (Cholera Toxin, Gibco). Two distinct human acute myeloid leukemia (AML) cell lines, HL-60 (FAB M2) and KG-1 (erythroleukemia-FAB M6), and one human lymphoblastic leukemia (ALL) cell line, Jurkat (T cell type), were also used. These three cell lines were obtained from German Collection of Microorganisms and Cell cultures (DMSZ®, Deutsche Sammlung von Mikroorganismen and Zellkulturen in German). Cells were cultured in RPMI 1640 medium (Biochrom®-Merck Millipore) supplemented with 10% heating inactivated FBS (Biochrom®-Merck Millipore) and 1% antibiotic/antimitotic mixture (Invitrogen®). Three human glioblastoma (GBM) cell line models, two established and commercially available cell lines (U87MG and GAMG, kind gift from Rui M. Reis) and one primary GBM culture (GLIB) were also used. GBM cells were cultures in DMEM (Biochrom-Merck Millipore), all supplemented with 10% FBS. The Renal cell carcinoma cell lines A498, 786-O, Caki-2 and HK2 were obtained from ATCC. The cancer cell line A498 was cultured in MEM medium (Biochrom®-Merck Millipore), 786-O was cultured in RPMI 1640 medium (Biochrom®-Merck Millipore), Caki-2 was cultured in Mc Coys medium (Biochrom®-Merck Millipore) and HK2 was cultured in RPMI 1640 medium (Biochrom®-Merck Millipore). All the media were supplemented with 10% heat inactivated FBS (Biochrom®-Merck Millipore) and 1% antibiotic/antimitotic mixture (Invitrogen®). All cells were grown in a humidified incubator at 37° C. and 5% CO2. For all assays, DMSO (Dimethyl Sulfoxide, Sigma-Aldrich) controls were used.
In an embodiment, cell viability assays were performed. MCF-7, Hs578T and MCF-10A cells were plated in triplicate in 96-multiwell culture plates, at 3000 cells […], or 5000 cells […] for MDA-MB-468 (100 μL/well). The cells were then allowed to adhere in complete medium, over a period of 18-20 hours. Cells were subsequently treated with 7 different concentrations (from 0.1 to 40 μM or 5 to 60 μM) of compounds or control in fresh medium. HL-60, KG-1 and Jurkat cell lines were plated in 96-multiwell culture plates at 50.000 cells/100 μL per well and treated with different concentrations (from 0.001 to 2 μM) of the compounds described (or control). Cells were plated, in triplicate, at an initial density of 2000 cells/well for GAMG, 4000 cells/well for GL18 and 6000 cells/well for U87MG, in 96-well plates, and allowed to adhere for 18-20 hours. Cells were then treated with different concentrations of the compounds (0.005 to 100 μM) or with control. […]

[1] = system: TNBC cell line MDA-MB-231; assay: Cell viability assay, MDA-MB-231; conditions: Homo sapiens
[2] = system: rapamycin-resistant A498 cell line; assay: Cell viability, rapamycin-resistant A498; conditions: for IC50: Homo sapiens, A498
Method: In an embodiment, the antiproliferative activity of compounds MC421, MC409, MC408, MC350, MC416, MC410, MC411, MC415 and MC413 was further determined against drug-resistant renal carcinoma cell lines.
In an embodiment, cell viability assays were performed. MCF-7, Hs578T and MCF-10A cells were plated in triplicate in 96-multiwell culture plates, at 3000 cells per mL, or 5000 cells per mL for MDA-MB-468 (100 μL/well). The cells were then allowed to adhere in complete medium, over a period of 18-20 hours. Cells were subsequently treated with 7 different concentrations (from 0.1 to 40 μM or 5 to 60 μM) of compounds or control in fresh medium. HL-60, KG-1 and Jurkat cell lines were plated in 96-multiwell culture plates at 50.000 cells/100 μL per well and treated with different concentrations (from 0.001 to 2 μM) of the compounds described (or control). Cells were plated, in triplicate, at an initial density of 2000 cells/well for GAMG, 4000 cells/well for GL18 and 6000 cells/well for U87MG, in 96-well plates, and allowed to adhere for 18-20 hours. Cells were then treated with different concentrations of the compounds (0.005 to 100 μM) or with control. A498 and 786-O cells were plated at 2000 cells per mL, Caki-2 cells were plated at 3000 cells per mL and HK2 cells were plated at 2000 cells per mL in triplicate, in 96-multiwell culture plates (100 μL/well), and allowed to adhere over a period of 18-20 hours in complete medium. The cells were then treated with 7 different concentrations (from 0.1 to 40 μM or 5 to 60 μM) of compounds or control in fresh medium. After 72 h of incubation, the MTS (Promega) reduction assay was performed according to manufacturer's instructions to indirectly assess the percentage of viable cells through metabolic cell viability. After 1-2 hours of incubation with MTS in a humidified atmosphere at 37° C. and 5% CO2, absorbance was measured at 490 nm. For RCC cell lines, sulforhodamine B assay was used according to manufacturer's instructions. The data was log-transformed and the concentration of each compound that decreased the number of viable cells to 50% (IC50) relative to control was calculated using the GraphPad Prism 6 software.

Row | Compound | IC50 (TNBC cell line Hs578t) | IC50 [1] | Selectivity Index (vs HK2) A498 Resistant [2] | IC50 [2]
1 | COc1cccc2c1Oc1nc(-c3cc(F)cc(F)c3O)[nH]c1C2 [MC410, 2,4-difluoro-6-(5-methoxy-3,9-dihydrochromeno[2,3-d]imidazol-2-yl)phenol] | > 20000 nM | > 30000 nM |  | 
2 | COc1cccc2c1Oc1nc(-c3ccc(F)cc3)[nH]c1C2C1c2cccc(OC)c2Oc2nc(-c3ccc(F)cc3)[nH]c21 (centres unmarked) [MC406, 2,2′-bis(4-fluorophenyl)-5,5′-dimethoxy-1,1,9,9′-tetrahydro-9,9′-bichromeno[2,3-]imidazoles] | 53 nM | 1290 nM |  | 
3 | COc1ccc(-c2nc3c([nH]2)Cc2cccc(OC)c2O3)c(Br)c1O [MC416, 2-bromo-6-methoxy-3-(5-methoxy-3,9-dihydrochromeno[2,3-]imidazol-2-yl)phenol] | 3160 nM |  |  | 
4 | COc1ccccc1-c1nc2c([nH]1)Cc1cccc(OC)c1O2 [MC411, 5-methoxy-2-(2-methoxyphenyl)-3,9-dihydrochromeno[2,3-]imidazoles] | 8610 nM | 1780 nM |  | 
5 | COc1cccc2c1Oc1nc(-c3ccccc3)[nH]c1C2 [MC350, 5-methoxy-2-phenyl-3,9-dihydrochromeno[2,3-d]imidazoles] |  | 2520 nM | 12.27 | 1.62 µM
6 | COc1cccc2c1Oc1nc(-c3ccccc3F)[nH]c1C2C1c2cccc(OC)c2Oc2nc(-c3ccccc3F)[nH]c21 (centres unmarked) [MC369, 2,2′-bis(2-fluorophenyl)-5,5′-dimethoxy-1,1,9,9′-tetrahydro-9,9′-bichromeno[2,3-]imidazoles] |  | 2520 nM |  | 
7 | COc1cccc2c1Oc1nc(-c3ccccc3F)[nH]c1C2 [MC407, 2-(2-fluorophenyl)-5-methoxy-3,9-dihydrochromeno[2,3-d]imidazoles] |  | 1650 nM |  | 
8 | COc1cccc2c1Oc1nc(-c3ccc(Br)cc3)[nH]c1C2C1c2cccc(OC)c2Oc2nc(-c3ccc(Br)cc3)[nH]c21 (centres unmarked) [MC421, 2,2′-bis(4-bromophenyl)-5,5′-dimethoxy-1,1,9,9′-tetrahydro-9,9′-bichromeno[2,3-]imidazoles] | 35 nM | 2960 nM | 14.56 | 0.16 µM
9 | CCOc1ccc(-c2nc3c([nH]2)Cc2cccc(OC)c2O3)cc1 [MC415, 2-(4-ethoxyphenyl)-5-methoxy-3,9-dihydrochromeno[2,3-d]imidazoles] | 580 nM | 1420 nM | 8.03 | 0.58 µM
10 | COc1cccc2c1Oc1nc(-c3ccc(F)cc3)[nH]c1C2 [MC409, 2-(4-fluorophenyl)-5-methoxy-3,9-dihydrochromeno[2,3-d]imidazoles] | 270 nM | 2700 nM | 5.84 | 0.51 µM
11 | COc1cccc2c1Oc1nc(-c3ccc(O)cc3)[nH]c1C2 [MC413, 4-(5-methoxy-3,9-dihydrochromeno[2,3-d]imidazol-2-yl)phenol] | 990 nM | 630 nM | 12.32 | 0.77 µM
12 | COc1cccc2c1Oc1nc(-c3ccc(Br)cc3)[nH]c1C2 [MC408, 2-(4-bromophenyl)-5-methoxy-3,9-dihydrochromeno[2,3-d]imidazoles] | 47 nM | 2560 nM | 2.26 | 1.07 µM
